Measurements: patent publication US11731986B2 (Sanford Burnham Prebys Medical Discovery Institute, priority 2017, dated 2023)

Biological target: T1, human LMPTP-A (Homo sapiens, UniProt P24666)
T1 sequence (P24666 1-158): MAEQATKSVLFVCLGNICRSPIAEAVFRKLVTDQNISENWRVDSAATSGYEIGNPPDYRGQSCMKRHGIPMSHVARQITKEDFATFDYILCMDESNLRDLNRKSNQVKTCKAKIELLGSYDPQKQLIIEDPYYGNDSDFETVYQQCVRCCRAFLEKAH
Assay: Enzyme Assay of Inhibition of LMPTP-A (phosphatase assay, OMFP or pNPP substrate)
Type: biochemical
Conditions: Bis-Tris pH 6.0, 37° C.
How it was run: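 Buffer 50 mM Bis-Tris pH 6.0, 1 mM DTT, 0.01% Triton X-100, 37 °C; OMFP read continuously (485/525 nm) or pNPP stopped with NaOH, 405 nm. IC50 from concentration vs % activity. Selectivity: 40 μM compound with 0.4 mM OMFP or 5 mM pNPP; reversibility: 50 nM enzyme, 10 μM compound, 5 min, 100× dilution.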

Compound | IC50 [nM]
O=C(/C=C/c1ccc(-c2cc(NCCCN3CCCCC3)c3cnccc3n2)cc1)NCCCN1CCCCC1 [(E)-N-(3-(Piperidin-1-yl)propyl)-3-(4-(4-(3-(piperidin-1-yl)propylamino)-1,6-naphthyridin-2-yl)phenyl)acrylamide] | ≤ 1000
CN1CCCN(CCNC(=O)/C=C/c2ccc(-c3cc(NCCCN4CCCCC4)c4cnccc4n3)cc2)CC1 [(E)-N-(2-(4-Methyl-1,4-diazepan-1-yl)ethyl)-3-(4-(4-(3-(piperidin-1-yl)propylamino)-1,6-naphthyridin-2-yl)phenyl)acrylamide] | ≤ 1000
CN1CCC(Nc2cc(-c3ccc(C(=O)NCCCN4CCCCC4)cc3)nc3ccncc23)C1 (stereo not drawn) [4-(4-((1-Methylpyrrolidin-3-yl)amino)-1,6-naphthyridin-2-yl)-N-(3-(piperidin-1-yl)propyl)benzamide] | 1000 to 20000
CN(C)CCNC(=O)c1nc2cc(-c3cc(NCCCN4CCCCC4)c4cnccc4n3)ccc2[nH]1 [N-(2-(dimethylamino)ethyl)-5-(4-(3-(piperidin-1-yl)propylamino)-1,6-naphthyridin-2-yl)-1H-benzo[d]imidazole-2-carboxamide] | ≤ 1000
CCN(CC)C(=O)c1ccc(-c2cc(NCCN3CCN(C)CC3)c3cnccc3n2)cc1 [N,N-diethyl-4-(4-(2-(4-methylpiperazin-1-yl)ethylamino)-1,6-naphthyridin-2-yl)benzamide] | 1000 to 20000
CN(C)CCNC(=O)/C=C/c1ccc(-c2cc(NCCCN3CCCCC3)c3cnccc3n2)cc1 [(E)-N-(2-(Dimethylamino)ethyl)-3-(4-(4-(3-(piperidin-1-yl)propylamino)-1,6-naphthyridin-2-yl)phenyl)acrylamide] | ≤ 1000
CCNc1cc(-c2ccc3[nH]c(C(=O)NCCCN4CCCCC4)nc3c2)nc2ccncc12 [5-(4-(ethylamino)-1,6-naphthyridin-2-yl)-N-(3-(piperidin-1-yl)propyl)-1H-benzo[d]imidazole-2-carboxamide] | 1000 to 20000
NC1CCN(C(=O)CCc2ccc(-c3cc(NCCCN4CCCCC4)c4cnccc4n3)cc2)CC1 | ≤ 1000
O=C(NCCCN1CCCCC1)c1ccc(-c2cc(NC3CCNCC3)c3cnccc3n2)cc1 [N-(3-(Piperidin-1-yl)propyl)-4-(4-(piperidin-4-ylamino)-1,6-naphthyridin-2-yl)benzamide] | 1000 to 20000
CN1CCC(NC(=O)c2cc3cc(-c4cc(Nc5ccc(CN6CCCC6)cc5)c5cnccc5n4)ccc3n2C)CC1 [1-methyl-N-(1-methylpiperidin-4-yl)-5-(4-((4-(pyrrolidin-1-ylmethyl)phenyl)amino)-1,6-naphthyridin-2-yl)-1H-indole-2-carboxamide] | ≤ 1000
Cn1c(C(=O)NC2CCNCC2)cc2cc(-c3cc(NCc4ccc(CN5CCCCC5)cc4)c4cnccc4n3)ccc21 [1-methyl-5-(4-(4-(piperidin-1-ylmethyl)benzylamino)-1,6-naphthyridin-2-yl)-N-(piperidin-4-yl)-1H-indole-2-carboxamide] | ≤ 1000
CCNC1CCN(C(=O)CCc2ccc(-c3cc(NCCCN4CCCCC4)c4cnccc4n3)cc2)CC1 | ≤ 1000
CN1CCC(CCNC(=O)C#Cc2ccc(-c3cc(NCCCN4CCCCC4)c4cnccc4n3)cc2)CC1 [N-(2-(1-methylpiperidin-4-yl)ethyl)-3-(4-(4-((3-(piperidin-1-yl)propyl)amino)-1,6-naphthyridin-2-yl)phenyl)propiolamide] | 1000 to 20000
CN1CCC(CCNC(=O)/C=C/c2ccc(-c3cc(NCCCN4CCCCC4)c4cnccc4n3)o2)CC1 [(E)-N-(2-(1-Methylpiperidin-4-yl)ethyl)-3-(5-(4-((3-(piperidin-1-yl)propyl)amino)-1,6-naphthyridin-2-yl)furan-2-yl)acrylamide] | 1000 to 20000
Cn1c(C(=O)NC2CCS(=O)(=O)CC2)cc2cc(-c3cc(NCCCN4CCCCC4)c4cnccc4n3)ccc21 [N-(1,1-dioxidotetrahydro-2H-thiopyran-4-yl)-1-methyl-5-(4-((3-(piperidin-1-yl)propyl)amino)-1,6-naphthyridin-2-yl)-1H-indole-2-carboxamide] | ≤ 1000
CCN1CCN(C(=O)c2cc3ccc(-c4cc(NCCCN5CCCCC5)c5cnccc5n4)cc3[nH]2)CC1 [(4-Ethylpiperazin-1-yl)(6-(4-(3-(piperidin-1-yl)propylamino)-1,6-naphthyridin-2-yl)-1H-indol-2-yl)methanone] | ≤ 1000
O=C(NCCc1ccncc1)c1ccc(-c2cc(NCCCN3CCCCC3)c3cnccc3n2)cc1 [4-(4-((3-(piperidin-1-yl)propyl)amino)-1,6-naphthyridin-2-yl)-N-(2-(pyridin-4-yl)ethyl)benzamide] | ≤ 1000
O=C(NCCCN1CCCCC1)c1cc2ccc(-c3cc(NCCCN4CCCCC4)c4cnccc4n3)cc2[nH]1 [N-(3-(Piperidin-1-yl)propyl)-6-(4-(3-(piperidin-1-yl)propylamino)-1,6-naphthyridin-2-yl)-1H-indole-2-carboxamide] | 1000 to 20000

Compound | IC50 [nM]
CN1CCC(CNC(=O)c2cc3cc(-c4cc(NCc5ccc(CN6CCCCC6)cc5)c5cnccc5n4)ccc3n2C)CC1 [1-methyl-N-((1-methylpiperidin-4-yl)methyl)-5-(4-(4-(piperidin-1-ylmethyl)benzylamino)-1,6-naphthyridin-2-yl)-1H-indole-2-carboxamide] | ≤ 1000
CN1CCC(NC(=O)c2cc3ccc(-c4cc(NCCCN5CCCCC5)c5cnccc5n4)cc3s2)CC1 [N-(1-methylpiperidin-4-yl)-6-(4-(3-(piperidin-1-yl)propylamino)-1,6-naphthyridin-2-yl)benzo[b]thiophene-2-carboxamide] | ≤ 1000
Cn1c(C(N)=O)cc2nc(-c3cc(NCCCN4CCCCC4)c4cnccc4n3)ccc21 [1-methyl-5-(4-((3-(piperidin-1-yl)propyl)amino)-1,6-naphthyridin-2-yl)-1H-pyrrolo[3,2-b]pyridine-2-carboxamide] | 1000 to 20000
CCN(CC)C(=O)/C=C/c1ccc(-c2cc(NCCCN3CCCCC3)c3cnccc3n2)s1 [(E)-N,N-Diethyl-3-(5-(4-(3-(piperidin-1-yl)propylamino)-1,6-naphthyridin-2-yl)thiophen-2-yl)acrylamide] | ≥ 20000
CN1CCC(CCNC(=O)COCc2ccc(-c3cc(NCCCN4CCCCC4)c4cnccc4n3)cc2)CC1 [N-(2-(1-methylpiperidin-4-yl)ethyl)-2-(4-(4-(3-(piperidin-1-yl)propylamino)-1,6-naphthyridin-2-yl)benzyloxy)acetamide] | ≤ 1000
CCN1CCN(C(=O)c2nc3cc(-c4cc(NCCCN5CCCCC5)c5cnccc5n4)ccc3n2CC)CC1 [(1-ethyl-5-(4-((3-(piperidin-1-yl)propyl)amino)-1,6-naphthyridin-2-yl)-1H-benzo[d]imidazol-2-yl)(4-ethylpiperazin-1-yl)methanone] | ≤ 1000
CCN(CC)C(=O)c1ccc(-c2cc(NCCCN3CCCCC3)c3cncc(C)c3n2)cc1 [N,N-Diethyl-4-(8-methyl-4-((3-(piperidin-1-yl)propyl)amino)-1,6-naphthyridin-2-yl)benzamide] | ≥ 20000
O=C(NC1CCNCC1)c1cc2ccc(-c3cc(NCCCN4CCCCC4)c4cnccc4n3)cc2s1 [6-(4-(3-(piperidin-1-yl)propylamino)-1,6-naphthyridin-2-yl)-N-(piperidin-4-yl)benzo[b]thiophene-2-carboxamide] | ≤ 1000
CN(C)CCNC(=O)c1cc2cc(-c3cc(NCCCN4CCCCC4)c4cnccc4n3)ccc2n1C [N-(2-(dimethylamino)ethyl)-1-methyl-5-(4-((3-(piperidin-1-yl)propyl)amino)-1,6-naphthyridin-2-yl)-1H-indole-2-carboxamide] | ≤ 1000
CCN(CC)C(=O)c1ccc(-c2cc(NCCCN3CCS(=O)(=O)CC3)c3cnccc3n2)cc1 [4-(4-((3-(1,1-Dioxidothiomorpholino)propyl)amino)-1,6-naphthyridin-2-yl)-N,N-diethylbenzamide] | 1000 to 20000
CCN(CC)C(=O)c1ccc(-c2cc(Nc3ccc(OC)cc3)c3cnccc3n2)cc1 [N,N-Diethyl-4-(4-(4-methoxyphenylamino)-1,6-naphthyridin-2-yl)benzamide] | 1000 to 20000
O=C(O)c1ccc(-c2cc(NCCCN3CCCCC3)c3cnccc3n2)cc1 [4-(4-((3-(piperidin-1-yl)propyl)amino)-1,6-naphthyridin-2-yl)benzoic acid] | ≤ 1000
CCN(CC)C(=O)c1ccc(-c2cc(NC3CCOCC3)c3cnccc3n2)cc1 [N,N-diethyl-4-(4-(tetrahydro-2H-pyran-4-ylamino)-1,6-naphthyridin-2-yl)benzamide] | 1000 to 20000
CN(C)CCNC(=O)c1cc2ccc(-c3cc(NCCCN4CCCCC4)c4cnccc4n3)cc2s1 [N-(2-(dimethylamino)ethyl)-6-(4-(3-(piperidin-1-yl)propylamino)-1,6-naphthyridin-2-yl)benzo[b]thiophene-2-carboxamide] | 1000 to 20000
CN1CCC(CNC(=O)C#Cc2ccc(-c3cc(NCCCN4CCCCC4)c4cnccc4n3)cc2)CC1 [N-((1-methylpiperidin-4-yl)methyl)-3-(4-(4-((3-(piperidin-1-yl)propyl)amino)-1,6-naphthyridin-2-yl)phenyl)propiolamide] | 1000 to 20000
CN1CCC(NC(=O)COc2ccc(-c3cc(NCCCN4CCCCC4)c4cnccc4n3)cc2)CC1 [N-(1-methylpiperidin-4-yl)-2-(4-(4-(3-(piperidin-1-yl)propylamino)-1,6-naphthyridin-2-yl)phenoxy)acetamide] | ≥ 20000
CN1CCC(CCNC(=O)CCc2ccc(-c3cc(NCCCN4CCCCC4)c4cnccc4n3)cc2)CC1 [N-(2-(1-Methylpiperidin-4-yl)ethyl)-3-(4-(4-(3-(piperidin-1-yl)propylamino)-1,6-naphthyridin-2-yl)phenyl)propanamide] | ≤ 1000
CCN(CC)C(=O)c1ccc(-c2cc(NC3CCNCC3)c3cnccc3n2)cc1 [N,N-Diethyl-4-(4-(piperidin-4-ylamino)-1,6-naphthyridin-2-yl)benzamide] | 1000 to 20000
